Laboratory results published in the supplement of paper PMC10331698.
± gives the standard deviation of the averaged measurements.

Tests used:
Assay in all cases: level (log10 ratio to DMSO vehicle control); higher = higher biomarker level / cell amount than vehicle control
[1] = compound: C=C(C)C(=O)OCCC(F)(F)C(F)(F)C(F)(F)C(F)(F)C(F)(F)C(F)(F)C(F)(F)C(F)(F)F [8:2 Fluorotelomer methacrylate] (in DMSO)
Protocol: (§1)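 BioMAP Diversity Plus panel of 12 human primary cell co-culture systems (3C, 4H, LPS, SAg, BT, BF4T, BE3C, CASM3C, HDF3CGF, KF3CT, MyoF, Mphg). Compounds were added 1 h before stimulation and left for 24 h (MyoF 48 h; BT 72 h for soluble read-outs or 6 d for IgG). Biomarkers were read by ELISA, cytotoxicity by SRB, PBMC viability and proliferation by Alamar Blue. Each well value was divided by the mean of 8 DMSO control wells on the same plate and log10 transformed; duplicate blinded samples were tested at 4 concentrations.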

[2] = compound: CCOC(=O)CC(=O)C(F)(F)C(F)(F)F [Ethyl pentafluoropropionyl acetate] (in DMSO)
Protocol: as §1

[3] = compound: CN(C(=O)C(F)(F)C(F)(F)C(F)(F)F)[Si](C)(C)C [N-Methyl-N-trimethylsilylheptafluorobutyramide] (in DMSO)
Protocol: as §1

[4] = compound: O=C(O)C(F)(F)OC(F)(F)C(F)(F)OC(F)(F)C(F)(F)OC(F)(F)C(F)(F)C(F)(F)C(F)(F)F [Perfluoro-3,6,9-trioxatridecanoic acid] (in DMSO); details: 6700 nM
Protocol: as §1

[5] = compound: O=C(O)C=C(C(F)(F)F)C(F)(F)F [3,3-Bis(trifluoromethyl)-2-propenoic acid] (in DMSO)
Protocol: as §1

[6] = compound: O=S(=O)(O)C(F)(F)C(F)(F)C(F)(F)C(F)(F)C(F)(F)C(F)(F)C(F)(F)F [Perfluoroheptanesulfonic acid] (in DMSO)
Protocol: as §1

[7] = compound: O=S(=O)(O)CCC(F)(F)C(F)(F)C(F)(F)C(F)(F)C(F)(F)C(F)(F)C(F)(F)C(F)(F)F [8:2 Fluorotelomer sulfonic acid] (in DMSO)
Protocol: as §1

Row | Test System | level (log10) ([1]; 6700 nM) | level (log10) ([1]; 20000 nM) | level (log10) ([2]; 6700 nM) | level (log10) ([2]; 20000 nM) | level (log10) ([2]; 60000 nM) | level (log10) ([3]; 6700 nM) | level (log10) ([3]; 20000 nM) | level (log10) ([3]; 60000 nM) | level (log10) [4] | level (log10) ([5]; 6700 nM) | level (log10) ([5]; 20000 nM) | level (log10) ([5]; 60000 nM) | level (log10) ([6]; 1500 nM) | level (log10) ([6]; 4400 nM) | level (log10) ([6]; 13000 nM) | level (log10) ([6]; 40000 nM) | level (log10) ([7]; 6700 nM) | level (log10) ([7]; 20000 nM) | level (log10) ([7]; 60000 nM)
1 | LPS:CCL2/MCP-1 | -0.0045 ± 0.047 | 0.042 ± 0.0085 | -0.025 ± 0.0085 | -0.0345 ± 0.018 | -0.0125 ± 0.018 | -0.0085 ± 0.0021 | -0.012 ± 0.013 | -0.0005 ± 0.023 | -0.0325 ± 0.023 | 0.0015 ± 0.00071 | -0.0145 ± 0.0035 | -0.02 ± 0.03 | 0.0045 ± 0.037 | -0.0455 ± 0.026 | -0.005 ± 0.042 | 0.014 ± 0.1 | 0.0135 ± 0.023 | 0.016 ± 0.0028 | -0.055 ± 0.045
2 | LPS:CD40 | 0.0345 ± 0.0092 | -0.028 ± 0.11 | 0.015 ± 0.0014 | -0.0245 ± 0.015 | -0.0335 ± 0.0064 | -0.023 ± 0.027 | -0.0065 ± 0.011 | -0.0325 ± 0.025 | -0.015 ± 0.024 | -0.055 ± 0.024 | -0.061 ± 0.047 | -0.184 | 0.035 ± 0.075 | 0.029 ± 0.096 | 0.0625 ± 0.1 | 0.001 ± 0.14 | 0.037 ± 0.016 | -0.0195 ± 0.021 | -0.128 ± 0.024
3 | LPS:CD62E/E-Selectin | 0.028 ± 0.0014 | 0.027 ± 0.035 | 0.015 ± 0.0085 | 0.0055 ± 0.018 | 0.0095 ± 0.039 | 0.0095 ± 0.026 | 0.002 ± 0.014 | 0.0105 ± 0.054 | -0.024 ± 0.0057 | -0.013 ± 0.021 | -0.025 ± 0.0071 | -0.0345 ± 0.005 | 0.0155 ± 0.015 | -0.0065 ± 0.0035 | -0.0075 ± 0.026 | 0.0095 ± 0.042 | 0.0235 ± 0.06 | 0.033 ± 0.02 | 0.082 ± 0.025
4 | LPS:CD69 | -0.0425 ± 0.04 | -0.0355 ± 0.05 | -0.02 ± 0.013 | -0.048 ± 0.02 | -0.021 ± 0.072 | -0.004 ± 0.011 | -0.013 ± 0.041 | 0.004 ± 0.011 | 0.013 ± 0.0014 | -0.072 ± 0.02 | -0.0565 ± 0.057 | -0.028 ± 0.09 | -0.01 ± 0.025 | -0.006 ± 0.0057 | -0.004 ± 0.025 | -0.015 ± 0.061 | -0.0455 ± 0.06 | -0.035 ± 0.071 | -0.0835 ± 0.049
5 | LPS:CD106/VCAM-1 | -0.032 ± 0.054 | -0.0515 ± 0.049 | 0.004 ± 0.011 | -0.0105 ± 0.037 | -0.0135 ± 0.026 | -0.0165 ± 0.0021 | -0.0035 ± 0.005 | -0.004 ± 0.041 | 0.001 ± 0.016 | -0.106 ± 0.021 | -0.141 ± 0.018 | -0.244 ± 0.069 | 0.015 ± 0.023 | 0.009 ± 0.031 | -0.0235 ± 0.052 | -0.01 ± 0.035 | -0.0135 ± 0.073 | -0.021 ± 0.065 | -0.0535 ± 0.077
6 | LPS:CD141/Thrombomodulin | -0.021 ± 0.038 | -0.064 ± 0.0099 | 0.0635 ± 0.016 | 0.0625 ± 0.012 | 0.077 ± 0.055 | -0.0125 ± 0.0064 | -0.014 ± 0.0085 | -0.018 ± 0.014 | -0.015 ± 0.0028 | -0.0835 ± 0.093 | -0.091 ± 0.14 | -0.026 ± 0.12 | 0.028 ± 0.011 | -0.0075 ± 0.026 | 0.006 ± 0.03 | -0.0065 ± 0.023 | 0.007 ± 0.11 | 0.0505 ± 0.071 | 0.205 ± 0.016
7 | LPS:CD142/Tissue Factor | 0.0615 ± 0.063 | 0.0315 ± 0.083 | -0.01 ± 0.021 | -0.032 ± 0.028 | -0.002 ± 0.033 | 0.015 ± 0.065 | 0.0255 ± 0.1 | -0.0085 ± 0.1 | -0.091 ± 0.021 | 0.0165 ± 0.064 | -0.023 ± 0.12 | -0.036 ± 0.12 | 0.0145 ± 0.049 | 0.006 ± 0.0042 | 0.0615 ± 0.063 | 0.0555 ± 0.061 | 0.0005 ± 0.067 | 0.024 ± 0.088 | -0.0025 ± 0.011
8 | LPS:CXCL8/IL-8 | -0.037 ± 0.05 | -0.0225 ± 0.076 | -0.022 ± 0.025 | -0.01 ± 0.0071 | -0.0005 ± 0.023 | 0.008 ± 0.0028 | 0.0245 ± 0.018 | 0.016 ± 0.052 | -0.0465 ± 0.061 | -0.052 ± 0.0099 | -0.047 ± 0.037 | -0.007 ± 0.069 | 0.015 ± 0.0071 | -0.038 ± 0.0014 | -0.0185 ± 0.033 | 0.031 ± 0.09 | 0.01 ± 0.11 | 0.0485 ± 0.012 | -0.053 ± 0.17
9 | LPS:IL-1alpha | 0.074 ± 0.0057 | 0.0625 ± 0.077 | 0 ± 0.034 | -0.0335 ± 0.025 | 0.0115 ± 0.019 | -0.004 ± 0.041 | 0.017 ± 0.0071 | 0.02 ± 0.0028 | -0.038 ± 0.013 | -0.0355 ± 0.015 | -0.0495 ± 0.023 | -0.095 ± 0.02 | 0.0125 ± 0.033 | -0.0015 ± 0.026 | -0.002 ± 0.069 | 0.056 ± 0.095 | -0.0195 ± 0.03 | -0.016 ± 0.037 | -0.283 ± 0.19
10 | LPS:M-CSF | -0.019 ± 0.021 | -0.0635 ± 0.00071 | -0.021 ± 0.011 | 0.0085 ± 0.019 | 0.012 ± 0.088 | -0.0075 ± 0.0092 | -0.0135 ± 0.012 | -0.0045 ± 0.079 | 0.009 ± 0.018 | -0.071 ± 0.082 | -0.155 ± 0.13 | -0.203 ± 0.13 | -0.008 ± 0.027 | -0.0185 ± 0.015 | -0.0405 ± 0.013 | -0.02 ± 0.024 | -0.016 ± 0.041 | 0.0075 ± 0.054 | -0.0795 ± 0.088
11 | LPS:SRB | -0.0085 ± 0.016 | -0.0005 ± 0.023 | 0.0015 ± 0.0021 | 0 ± 0.0028 | -0.004 ± 0.0085 | 0.0045 ± 0.012 | 0.0045 ± 0.0078 | 0 ± 0.0028 | 0.008 ± 0.0071 | -0.006 ± 0.0071 | -0.024 ± 0.0085 | -0.044 ± 0.0057 | -0.0105 ± 0.005 | -0.0165 ± 0.0021 | -0.002 ± 0.0085 | 0.007 ± 0.02 | -0.0085 ± 0.005 | -0.0095 ± 0.019 | -0.02 ± 0.018
12 | LPS:sPGE2 | -0.038 ± 0.013 | -0.058 ± 0.048 | 0.0175 ± 0.012 | -0.0005 ± 0.013 | 0.034 ± 0.0014 | 0.0035 ± 0.011 | 0.0095 ± 0.044 | -0.023 ± 0.057 | -0.0245 ± 0.013 | -0.0855 ± 0.016 | -0.09 ± 0.021 | -0.106 ± 0.016 | 0.018 ± 0.024 | 0.0045 ± 0.016 | 0.0175 ± 0.0064 | 0.005 ± 0.024 | -0.0245 ± 0.0035 | -0.078 ± 0.047 | -0.293 ± 0.017
13 | LPS:sTNF-alpha | 0.0165 ± 0.0064 | -0.007 ± 0.017 | 0.0125 ± 0.015 | 0.0095 ± 0.0064 | 0.0085 ± 0.012 | -0.004 ± 0.0042 | -0.002 ± 0.011 | -0.0065 ± 0.015 | -0.019 ± 0.024 | -0.0305 ± 0.042 | 0.0195 ± 0.023 | -0.0025 ± 0.035 | 0.024 ± 0.011 | -0.0245 ± 0.012 | -0.0225 ± 0.013 | -0.0295 ± 0.005 | 0.0095 ± 0.011 | -0.006 ± 0.0099 | -0.212 ± 0.12
14 | SAg:CCL2/MCP-1 | 0.0005 ± 0.025 | 0.003 ± 0.011 | -0.0005 ± 0.011 | -0.0225 ± 0.0078 | 0.011 ± 0.0085 | -0.0135 ± 0.0078 | -0.012 ± 0.018 | -0.0005 ± 0.026 | -0.0125 ± 0.018 | -0.0145 ± 0.00071 | -0.0535 ± 0.0078 | -0.079 ± 0.042 | -0.001 ± 0.031 | -0.0345 ± 0.044 | -0.024 ± 0.028 | 0.031 ± 0.0071 | -0.0035 ± 0.019 | 0 ± 0.0099 | -0.0025 ± 0.0078
15 | SAg:CD38 | -0.0195 ± 0.00071 | -0.011 ± 0.013 | -0.0055 ± 0.049 | 0.019 ± 0.045 | -0.0175 ± 0.0021 | -0.0015 ± 0.019 | -0.009 ± 0.0014 | 0.0115 ± 0.023 | 0.0175 ± 0.026 | 0.0025 ± 0.013 | -0.019 ± 0.017 | -0.073 ± 0.0028 | -0.003 ± 0.025 | -0.019 ± 0.017 | -0.008 ± 0.027 | -0.011 ± 0.0042 | -0.0175 ± 0.04 | -0.02 ± 0.034 | -0.0595 ± 0.053
